Experimental data published in patent US11773063B1, “Pharmaceutically acceptable salts and compositions thereof” (priority 2022, dated 2023).
Counter-ions that a name gives are not always drawn. Like-named read-outs stand apart in the source and are kept apart here.

Tests used:
[1] = Dynamic Vapor Sorption (DVS), salt screen and scale-up salts; assay type: physicochemical
Procedure: Dynamic Vapor Sorption (DVS)
DVS analyses were performed on TA Instrument DVS Q5000. Samples were added to a pre-tared metallised quartz crucible and run at 25° C. from 40% RH to 90% RH, down to zero and back to 40%. This cycle was repeated in increments of 10% RH.

[2] = Storage at 40° C./75% RH for 1 week, XRPD (salts produced during scale-up); assay type: physicochemical; settings: salt produced during scale-up
Procedure: Oxalate Salt HPLC Purity, DVS, Stability at 40° C./75% RH (XRPD and HPLC), PSD/Morphology Assessment

[3] = Oxalate salt solubility by HPLC; assay type: physicochemical; settings: for solubility: thermodynamic from solid, by HPLC, mother liquors adjusted to the desired pH, read-out: Solubility (mg/ml) of free base
Procedure: The calibration curve of the free base was prepared between 0.031-0.500 mg/ml and can be seen in FIG. 172.
Oxalate Salt Solubility by HPLC
Mother liquors were adjusted to the desired pH before HPLC quantification.

[4] = Dissolution in hot MeOH (phosphate re-crystallisation); assay type: physicochemical; set-up: key to Observation (sample dissolution in hot MeOH): ✓ = solution; ✓/X = turbid solution; X = suspension
[5] = Polymorph assessment, slurry maturation in 10 solvents between 5 and 50° C.; assay type: physicochemical; set-up: key to Observation at 50° C. / Observation at 5° C.: ✓ = solution; ✓/X = turbid solution; X = suspension; settings: for dissolution in 10 volumes of solvent: 10 solvents, 5-50° C., 24 hours
Procedure: DR-2186-45-01 (20 mg, PHO Pattern 1+Extra Peaks) was weighed into 10 HPLC vials. To this was added 10 volumes (200 μL) of solvent, a stirrer bar and the samples heated to 50° C. on a Polar Bear heat/cool block (400 RPM). After holding at 50° C. for 30 minutes and observation was made and the samples cooled to 5° C. where a further observation was made. All samples were than subjected to heat/cool cycles between 5 and 50° C. holding for 4 hours at each temperature for 24 hours.
A polymorph assessment was carried out in 10 different solvents using PHO Pattern 1+extra peaks as the input material, maturating a slurry of the salt between 5° C. and 50° C. for 24 hours. The results of the XRPD analysis of the samples can be seen in FIG. 118. The isolated solid was the same as the input material in all cases other than MeOH.
DR-2186-46-01 (20 mg, TAR Pattern 1) was weighed into 10 HPLC vials. To this was added 10 volumes (200 μL) of solvent, a stirrer bar and the samples heated to 50° C. on a Polar Bear heat/cool block (400 RPM). After holding at 50° C. for 30 minutes and observation was made and the samples cooled to 5° C. where a further observation was made. All samples were than subjected to heat/cool cycles between 5 and 50° C. holding for 4 hours at each temperature for 24 hours.
A polymorph assessment was carried out in 10 different solvents, maturating a slurry of the salt between 5° C. and 50° C. for 24 hours.

[6] = Storage at 40° C./75% RH and 25° C./97% RH for 7 days, XRPD and HPLC (Example 3); assay type: physicochemical
Procedure: FIG. 128. XRPD diffractogram overlay of 5-MeO-DMT Phosphate Pattern 1 before and after storage at 25° C./97% RH and 40° C./75% RH for 7 days.
FIG. 139. XRPD diffractogram overlay of 5-MeO-DMT Tartrate Pattern 1 before and after storage at 25° C./97% RH and 40° C./75% RH for 7 days.
The sample is classed as slightly hygroscopic with a total reversible mass change of 0.3 wt. % between 0-90% RH. The DVS isotherm and DVS kinetic plot can be seen in FIGS. 124 and 125, respectively. The solid form was unchanged after a double-cycle experiment, the XRPD analysis confirming this can be seen in FIG. 126.
The sample is classed as slightly hygroscopic with a total reversible mass change of 0.6 wt. % between 0-90% RH (FIG. 135). The solid-form was unchanged after the double-cycle experiment (FIG. 136).

[7] = Thermo-Gravimetric Analysis (TGA), thermal stability; settings: for thermal stability up to (TGA): nitrogen
Procedure: Thermo—Gravimetric Analysis (TGA)
TGA thermograms were obtained with a TA Instrument Discovery 550 in Al pans. The heating rate used was 10° C./min linear ramp from 25 to 400° C. with a nitrogen purging at a rate of 60 ml/min. TGA thermograms were analysed using TRIOS software.

[8] = DVS double-cycle experiment (Example 3); assay type: physicochemical
[9] = assay type: physicochemical; settings: 40° C./75% RH, three days
Procedure: Physical Stability of Salts
Physical stability stress tests were conducted on generated crystalline salts at controlled temperature and relative humidity. The powder samples were stored at 40° C./75% RH for three days. After this time samples were analysed by XRPD to see whether the physical state of salts changed during the storage.

[10] = Solubility assessment in four different media; assay type: physicochemical; settings: for solubility: 37 °C, aqueous buffer, thermodynamic from solid, four different media; for pH after addition of 1.0 ml media at 37° C. / Observation: 250 mg per vial; for Observation: 1.0 ml media at 37° C.
Procedure: Solubility assessments of 5-MeO-DMT oxalate, hydrobromide fumarate and benzoate were performed in four different media: […]

[11] = 5-MeO-DMT phosphate, input DR-2186-45-01 (PHO Pattern 1+Extra Peaks), 20 mg in 10 volumes, solvent per sample: -01 MeOH, -02 Acetone, -03 CAN, -04 IPA:Water 9:1, -05 2-MeTHF, -06 EtOAc, -07 Ethanol, -08 Toluene, -09 MEK, -10 TBME

COc1ccc2[nH]cc(CCN(C)C)c2c1 [Oxalate salt, 5-MeO-DMT oxalate]
change of crystalline form during the DVS experiment (DVS / post-DVS XRPD) [1]: no change in the crystalline form | crystalline form after storage (XRPD) [2]: no change in crystalline form | form of isolated solids after solubility experiment (XRPD) [3]: no change in form | solubility ([3]; fassgf or other biorelevant, SNF): 20.2 mg/mL | solubility ([3]; pH 4.5 medium, aqueous buffer, pH 4.5): 35.5 mg/mL | solubility ([3]; pH 6.8 medium, aqueous buffer, pH 6.8): 26.9 mg/mL

COc1ccc2[nH]cc(CCN(C)C)c2c1 [DR-2186-45-01, 5-MeO-DMT phosphate]
Observation (sample dissolution in hot MeOH) ([4]; 5 volumes of MeOH, 50° C., 1.00 g PHO Pattern 1+extra peaks): X | Observation (sample dissolution in hot MeOH) ([4]; 8 volumes of MeOH, 50° C.): X | Observation (sample dissolution in hot MeOH) ([4]; 12 volumes of MeOH, 50° C.): X | Observation (sample dissolution in hot MeOH) ([4]; 16 volumes of MeOH, 50° C.): X | Observation (sample dissolution in hot MeOH) ([4]; 18 volumes of MeOH, 50° C.): X | Observation (sample dissolution in hot MeOH) ([4]; 18 volumes of MeOH, 60° C.): X | Observation (sample dissolution in hot MeOH) ([4]; 20 volumes of MeOH, 60° C., 150 RPM, Easymax vessel overhead stirring): X | Observation (sample dissolution in hot MeOH) ([4]; 20 volumes of MeOH, 60° C., scintillation vial): X | Observation (sample dissolution in hot MeOH) ([4]; 22 volumes of MeOH, 60° C., Easymax vessel overhead stirring): X | Observation (sample dissolution in hot MeOH) ([4]; 24 volumes of MeOH, 60° C., Easymax vessel overhead stirring): ✓/X | Observation (sample dissolution in hot MeOH) ([4]; 25 volumes of MeOH, 60° C., 250 RPM, Easymax vessel overhead stirring): ✓ | volumes of MeOH at which dissolution was achieved ([4]; MeOH at 60° C., 1.00 g): 25 volumes | dissolution in 10 volumes of solvent ([5]; listed as PHO Pattern 1+Extra Peaks): Non of the samples completely dissolved

COc1ccc2[nH]cc(CCN(C)C)c2c1 [Tartrate Pattern 1, 5-MeO-DMT tartrate]
change by XRPD or HPLC after storage ([6]; 25° C./97% RH): no change | Static Storage 7 days - 40° C./75% RH, XRPD ([6]; 40° C./75% RH): KRPD-TAR Pattern 1 | change by XRPD or HPLC after storage ([6]; 40° C./75% RH): no change | Static Storage 7 days - 40° C./75% RH, HPLC ([6]; 40° C./75% RH, HPLC purity): HPLC-97.8% | TGA mass loss before decomposition [7]: No mass loss observed in sample before | start of decomposition / complete mass loss (TGA) ([7]; 10° C./min): 175 °C | solid form after double-cycle DVS experiment (XRPD) [8]: unchanged | total reversible mass change between 0-90% RH ([8]; DVS): 0.6 wt. % | hygroscopicity class ([8]; DVS 0-90% RH, Example 3): slightly hygroscopic (Pharmaceuticals that pick up between 0.2% and 2.0% moisture at 80% RH are considered slightly hygroscopic) | GVS total mass change as mol eq. water ([8]; from 0-90% RH): RH (0.12 mol eq. of water) and is reversible with mol eq. water | GVS total mass change ([8]; from 0-90% RH, double cycle): Total mass change of 0.58 wt. % from 0-90% | Solid form of the material after GVS by XRPD ([8]; post GVS): unchanged by XRPD. | dissolution in 10 volumes of solvent [5]: No dissolution was observed

Br.COc1ccc2[nH]cc(CCN(C)C)c2c1 [Hydrobromide salt, 5-MeO-DMT hydrobromide]
change of crystalline form during the DVS experiment (DVS / post-DVS XRPD) [1]: no change in crystalline form | hygroscopicity class ([1]; DVS, 25° C.): non-hygroscopic | crystalline form after storage (XRPD) [9]: No change in crystalline form | crystalline form after storage (XRPD) [2]: no change in crystalline form | solubility compared to other salts [10]: high solubility | solubility [10]: ≥ 250 mg/mL | pH after addition of 1.0 ml media at 37° C. ([10]; SNF): 8.13 | Observation ([10]; SNF): Clear solution | pH after addition of 1.0 ml media at 37° C. ([10]; pH 1.2 buffer): 8.09 | Observation ([10]; pH 1.2 buffer): Clear solution | pH after addition of 1.0 ml media at 37° C. ([10]; pH 4.5 buffer): 7.65 | Observation ([10]; pH 4.5 buffer): Clear solution | pH after addition of 1.0 ml media at 37° C. ([10]; pH 6.8 buffer): 7.82 | Observation ([10]; pH 6.8 buffer): Clear solution | thermal stability up to (TGA) ([7]; 10° C./min): 220 °C | temperature with 95% of weight remaining (TGA) ([7]; Ramp 10° C./min to 400° C., salt produced during scale-up): 269 °C

COc1ccc2[nH]cc(CCN(C)C)c2c1.O=P(O)(O)O [DR-2186-52-02]
Observation at 5° C. [5, 11]: X | Observation at 50° C. [5, 11]: X

COc1ccc2[nH]cc(CCN(C)C)c2c1 [Fumarate salt, 5-MeO-DMT fumarate]
change of crystalline form during the DVS experiment (DVS / post-DVS XRPD) [1]: a change in crystalline form occurred | mass difference between 40% RH and 0% RH ([1]; DVS, salt produced during scale-up): ~2.84% | crystalline form after storage (XRPD) [9]: some additional peaks were also observed | crystalline form after storage (XRPD) [2]: mixture of form/pattern 1 and form/pattern 2 | pH after addition of 1.0 ml media at 37° C. ([10]; SNF): 5.14 | Observation ([10]; SNF): Clear solution | solubility ([10]; four media: SNF, pH 1.2, pH 4.5 and pH 6.8 media): ≥ 250 mg/mL | pH after addition of 1.0 ml media at 37° C. ([10]; pH 1.2 buffer): 5.24 | Observation ([10]; pH 1.2 buffer): Clear solution | pH after addition of 1.0 ml media at 37° C. ([10]; pH 4.5 buffer): 5.31 | Observation ([10]; pH 4.5 buffer): Clear solution | pH after addition of 1.0 ml media at 37° C. ([10]; pH 6.8 buffer): 5.79 | Observation ([10]; pH 6.8 buffer): Clear solution | thermal stability up to (TGA) ([7]; 10° C./min): 150 °C
